In patent US20230014907A1, “INHIBITORS OF APOL1 AND METHODS OF USING SAME” (Vertex Pharmaceuticals Incorporated, priority 2020, published 2023):

Target: T1, G1 APOL1 (Homo sapiens, UniProt O14791, I384M/S342G)
T1 construct: expressed in transfected cells
T1 sequence (O14791 28-398 S342G/I384M): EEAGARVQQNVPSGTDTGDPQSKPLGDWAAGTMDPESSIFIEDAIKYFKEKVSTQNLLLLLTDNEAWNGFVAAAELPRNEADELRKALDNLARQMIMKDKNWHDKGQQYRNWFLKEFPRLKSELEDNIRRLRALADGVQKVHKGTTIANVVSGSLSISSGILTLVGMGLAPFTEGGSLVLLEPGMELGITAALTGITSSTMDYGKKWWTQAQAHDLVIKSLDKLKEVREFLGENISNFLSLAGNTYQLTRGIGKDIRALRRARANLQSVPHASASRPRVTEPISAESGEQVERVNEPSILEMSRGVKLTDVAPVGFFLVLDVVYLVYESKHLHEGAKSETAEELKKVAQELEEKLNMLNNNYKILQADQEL
Assay: Acute APOL1 Thallium Assay with Inducible Stable Clones of HEK 293 Cells
Format: cell-based
Settings: HEK 293 inducible stable clones, G1 APOL1; read-out: Thallium Assay (IC50)
Excerpt: Acute APOL1 Thallium Assay with Inducible Stable Clones of HEK 293 Cells
Apolipoprotein L1 (APOL1) proteins form potassium-permeable cation pores in the plasma membrane. APOL1 risk variants (G1 and G2) induce greater potassium flux than G0 in HEK293 cells. This assay exploits the permeability of thallium (Tl+) through ligand-gated potassium channels. The dye produces a bright fluorescent signal upon binding to Tl+ conducted through potassium channels. The intensity of the Tl+ signal is proportional to the number of potassium channels in the open state. Therefore, it provides a functional indication of the potassium channel activities. During the initial dye-loading step, the Tl+ indicator dye as an acetoxymethyl (AM) ester enters the cells through passive diffusion. Cytoplasm esterases cleave the AM ester and relieve its active thallium-sensitive form. The cells are then stimulated with Tl+. The increase of fluorescence in the assay represents the influx of Tl+ into the cell specifically through the potassium channel (i.e. through APOL1 pores), providing a functional measurement of potassium channel/pore activity. The Thallium assay is conducted with cells expressing G1 APOL1.
APOL1 Cell Line (HEK T-Rex Stable Inducible Cell Line) • HEK T-Rex System • Tetracycline (Tet) inducible mammalian expression system. • Stably express the Tet repressor to regulate transcription. • Expression under the full-length CMV promoter. • APOL1 stable inducible cell line Clone used: G1 DC3.25
Tissue Culture Media • Cell Culture Medium • DMEM+10% FBS+P/S+5 μg/mL blasticidin+1 μg/mL puromycin. • 500 mL DMEM+55 mL FBS+5 mL P/S+280 μL blasticidin S HCl (10 mg/mL)+56 μL puromycin (10 mg/mL). • Cell Assay Medium • DMEM with 2% FBS+penicillin/streptomycin.
Instruments and Equipment • Nuaire cell culture hood, Cat. No. 540-600 • 37° C./5% CO2 incubator link to robotic arm, Liconic: STX110 • Molecular Devices FLIPR^Tetra High throughput cellular screening system, Cat. No. FT0324, Molecular Devices • ThermoFisher MultiDrop 384, Cat. No. 5840300 • Biotek Microfill, Cat. No. ASF1000A-4145 • BioRad TC10 cell counter, Cat. No. 145-0010
Cells Scaled Up from Frozen Vials • APOL1 G1 3.25 (HEK293 T-Rex) frozen vials: 5 million cells per vial • Step 1, Day 1: Defrost frozen vial into T-225. • Step 2, Day 5: (when 85% confluent): Split one T-225 at 3×10^6 cells per flask. • Step 3, Day 8: Splits cells to set up for the assay plates as described below.
T-Rex APOL1 HEK cells are split twice per week to keep the confluence state below 85% of the culture flask surface area. Cells can be kept until passage 25. • Cell Culture Medium • DMEM high glucose+10% FBS, +P/S, +5 μg/mL blasticidin, +1 μg/mL puromycin. • 500 mL DMEM, +55 mL FBS, +5 mL P/S, +280 μL blasticidin 10 mg/mL, +56 μL Puromycin 10 mg/mL. • Assay Media • Opti-MEM reduced serum medium from Invitrogen.
Preparation of Cell Assay Plates • Culture medium is removed from the x cm^2 T-flask by aspiration. • The cell monolayer is rinsed with PBS 1× at room temperature. PBS is removed by aspiration. • Cells are trypsinized using Trypsin. • The flasks are incubated at room temperature for 2-3 minutes. • Complete DMEM medium is then added. Cell suspension is then transferred to a 50 mL Falcon polypropylene tube. • Cells are then counted using a BioRad TC10 cell counter and the required amount of cells are centrifuged at 1200 RPM for 5 minutes. Required amount is 1.3×10^6 cells/mL APOL1 T-Rex HEK cells. • The pellet is suspended in the assay medium. • Using the MultiDrop, add 20 μL to each well (corresponds to 26000 cells total per well) of a 384-well black, transparent, flat bottom Poly-D coated plate. • Tetracycline as prepared in the following section is added to the cells before plating to induce APOL1 expression. • Plates are left at room temperature for 20 to 30 minutes before incubation at 37° C. and 5% CO2. […]

IC50 [nM] | Structure (SMILES)
> 1000 | O=C1NC(=O)C(CCS(=O)(=O)NCCc2c(-c3ccc(F)cc3)[nH]c3c(F)cc(F)cc23)N1 (stereo not shown) [Compound 420, N-(2-(5,7-difluoro-2-(4-fluorophenyl)-1H-indol-3-yl)ethyl)-2-(2,5-dioxoimidazolidin-4-yl)ethane-1-sulfonamide]
> 1000 | O=C(NCCc1c(-c2ccc(F)cc2)[nH]c2c(F)cc(F)cc12)N[C@@H]1CC[C@@H](O)C1 [Compound 273]
> 1000 | Cc1cc(F)c2[nH]c(-c3ccc(F)cc3)c(CCC(=O)NC(CO)CF)c2c1 (stereo not shown) [Compound 221]
> 1000 | Cc1cc(F)c2[nH]c(-c3ccc(F)cc3)c(CCC(=O)N[C@H](CO)C(F)(F)F)c2c1 [Compound 224]
> 1000 | CN(CCO)C(=O)NCCc1c(-c2ccc(F)cc2)[nH]c2c(F)cc(F)cc12 [Compound 302]
< 250 | O=C(N[C@@H](CO)C(F)F)OCCc1c(-c2ccc(F)cc2)[nH]c2c(F)cc(F)cc12 [Compound 441]
> 1000 | Cc1occc1C(=O)NCCc1c(-c2ccc(F)cc2)[nH]c2c(F)cc(F)cc12 [Compound 394]
> 1000 | O=C(NCCc1c(-c2ccc(F)cc2)[nH]c2c(F)cc(F)cc12)c1ccncc1 [Compound 402]
> 1000 | CC(O)CCNC(=O)OCCc1c(-c2ccc(F)cc2)[nH]c2c(F)cc(F)cc12 (stereo not shown) [Compound 483]
250 to 1000 | O=C(CCc1c(-c2ccc(F)cc2)[nH]c2c(F)cc(Cl)cc12)NC1(CO)CCC1 [Compound 194, 3-[5-chloro-7-fluoro-2-(4-fluorophenyl)-1H-indol-3-yl]-N-[1-(hydroxymethyl)cyclobutyl]propanamide]
> 1000 | Cn1ccnc1CCC(=O)NCCc1c(-c2ccc(F)cc2)[nH]c2c(F)cc(F)cc12 [Compound 371]
> 1000 | NCCc1c(-c2ccc(F)cc2)[nH]c2c(F)cc(F)cc12 [Compound 432, 2-[5,7-difluoro-2-(4-fluorophenyl)-1H-indol-3-yl]ethanamine]
> 1000 | O=CNCCc1c(-c2ccc(F)cc2)[nH]c2c(F)cc(F)cc12 [Compound 419, N-[2-[5,7-difluoro-2-(4-fluorophenyl)-1H-indol-3-yl]ethyl]formamide]
< 250 | C[C@H](O)[C@H](CO)NC(=O)OCCc1c(-c2ccc(F)cc2)[nH]c2c(F)cc(F)cc12 [Compound 442]
> 1000 | Cc1ccnn1CCC(=O)NCCc1c(-c2ccc(F)cc2)[nH]c2c(F)cc(F)cc12 [Compound 372]
> 1000 | Cc1cnc(CNC(=O)OCCc2c(-c3ccc(F)cc3)[nH]c3c(F)cc(F)cc23)o1 [Compound 487]
> 1000 | O=C(NCCc1c(-c2ccc(F)cc2)[nH]c2c(F)cc(F)cc12)NCC1CC(F)(F)C1 [Compound 289]
250 to 1000 | NC(=O)C1(NC(=O)CCc2c(-c3ccc(F)cc3)[nH]c3c(F)cc(F)cc23)CC1 [Compound 107]
> 1000 | O=C1NCC(C(=O)NCCc2c(-c3ccc(F)cc3)[nH]c3c(F)cc(F)cc23)O1 (stereo not shown) [Compound 337]
250 to 1000 | Cc1cc(F)c2[nH]c(-c3ccc(F)cc3)c(CCC(=O)NC(C#N)CO)c2c1 (stereo not shown) [Compound 215]
> 1000 | O=C(Nc1cc(=O)[nH][nH]1)OCCc1c(-c2ccc(F)cc2)[nH]c2c(F)cc(F)cc12 [Compound 488]
> 1000 | O=C(Cn1cncn1)NCCc1c(-c2ccc(F)cc2)[nH]c2c(F)cc(F)cc12 [Compound 386]

IC50 [nM] | Structure (SMILES)
> 1000 | O=C(NCCc1c(-c2ccc(F)cc2)[nH]c2c(F)cc(F)cc12)c1cncs1 [Compound 384]
> 1000 | O=C(Cn1nccn1)NCCc1c(-c2ccc(F)cc2)[nH]c2c(F)cc(F)cc12 [Compound 387]
> 1000 | CC(C)(C)OC(=O)NC1(CC(=O)NCCc2c(-c3ccc(F)cc3)[nH]c3c(F)cc(F)cc23)CC1 [Compound 312]
> 1000 | C[C@@H]1NC(=O)N(CCc2c(-c3ccc(F)cc3)[nH]c3c(F)cc(F)cc23)C1=O [Compound 257, (5S)-3-[2-[5,7-difluoro-2-(4-fluorophenyl)-1H-indol-3-yl]ethyl]-5-methyl-imidazolidine-2,4-dione]
250 to 1000 | O=C(NCCc1c(-c2ccc(F)cc2)[nH]c2c(F)cc(F)cc12)C1CC1(F)F (stereo not shown) [Compound 404]
> 1000 | CC(C)(O)C#Cc1c(-c2ccc(F)cc2)[nH]c2c(F)cc(F)cc12 [Compound 523, 4-[5,7-difluoro-2-(4-fluorophenyl)-1H-indol-3-yl]-2-methyl-but-3-yn-2-ol]
250 to 1000 | O=C(CCc1c(-c2ccc(F)cc2)[nH]c2c(F)cc(Cl)cc12)NC(CO)(CO)CO [Compound 195]
> 1000 | C[C@H](NC(=O)OC(C)(C)C)C(=O)NCCc1c(-c2ccc(F)cc2)[nH]c2c(F)cc(F)cc12 [Compound 313]
> 1000 | CC(CC(N)=O)N(C)C(=O)NCCc1c(-c2ccc(F)cc2)[nH]c2c(F)cc(F)cc12 (racemic) [Compound 290]
> 1000 | O=C(CCc1c(-c2ccc(F)cc2)[nH]c2c(F)cc(F)cc12)NC1=CCNC1=O [Compound 94, 3-[5,7-difluoro-2-(4-fluorophenyl)-1H-indol-3-yl]-N-(5-oxo-1,2-dihydropyrrol-4-yl)propanamide]
> 1000 | CC1(C(=O)NCCc2c(-c3ccc(F)cc3)[nH]c3c(F)cc(F)cc23)CCC(=O)NC1 (stereo not shown) [Compound 319]
> 1000 | Cn1nccc1CNC(=O)CCCc1c(-c2ccc(F)cc2)[nH]c2c(F)cc(F)cc12 [Compound 255]
> 1000 | O=S(=O)(CCO)NCCc1c(-c2ccc(F)cc2)[nH]c2c(F)cc(F)cc12 [Compound 422]
250 to 1000 | CC(O)C(C)NC(=O)OCCc1c(-c2ccc(F)cc2)[nH]c2c(F)cc(F)cc12 (mixture of isomers) [Compound 453]
> 1000 | Cn1cnc(CNC(=O)CCCc2c(-c3ccc(F)cc3)[nH]c3c(F)cc(F)cc23)c1 [Compound 244]
> 1000 | O=C(NCCc1c(-c2ccc(F)cc2)[nH]c2c(F)cc(F)cc12)NCC1CCCOC1 (stereo not shown) [Compound 293]
< 250 | C[C@@H](O)CNC(=O)OCCc1c(-c2ccc(F)cc2)[nH]c2c(F)cc(F)cc12 [Compound 450]
> 1000 | CC(C)(O)CCNC(=O)NCCc1c(-c2ccc(F)cc2)[nH]c2c(F)cc(F)cc12 [Compound 270]
> 1000 | O=C1NC[C@@H](O)[C@@H]1NCCc1c(-c2ccc(F)cc2)[nH]c2c(F)cc(F)cc12 [Compound 427, (3S,4R)-3-((2-(5,7-difluoro-2-(4-fluorophenyl)-1H-indol-3-yl)ethyl)amino)-4-hydroxypyrrolidin-2-one]
250 to 1000 | Cc1cc(F)c2[nH]c(-c3ccc(F)cc3)c(CCC(=O)NC3(CO)CCC3)c2c1 [Compound 216]
> 1000 | O=C(NCc1cnco1)OCCc1c(-c2ccc(F)cc2)[nH]c2c(F)cc(F)cc12 [Compound 477]
